From ChEMBL document CHEMBL1131891, “Antiplatelet actions of aporphinoids from Formosan plants” (Bioorg Med Chem Lett, 1999)

What was measured:
Assay type in all cases: functional
Oryctolagus cuniculus [1] = species on record: Oryctolagus cuniculus; assay: Effect on platelet aggregation induced by adenosine 5'-diphosphate (ADP) in washed rabbit platelet
Oryctolagus cuniculus [2] = species on record: Oryctolagus cuniculus; assay: Inhibitory activity against platelet aggregation induced by arachidonic acid(AA) in washed rabbit platelet
Oryctolagus cuniculus [3] = species on record: Oryctolagus cuniculus; assay: Effect on platelet aggregation induced by collagen in washed rabbit platelet
Oryctolagus cuniculus [4] = species on record: Oryctolagus cuniculus; assay: Effect on platelet aggregation induced by platelet activating factor(PAF) in washed rabbit platelet
Oryctolagus cuniculus [5] = species on record: Oryctolagus cuniculus; assay: Effect on platelet aggregation induced by arachidonic acid(AA) in washed rabbit platelet
Oryctolagus cuniculus [6] = species on record: Oryctolagus cuniculus; assay: Inhibitory activity against platelet aggregation induced by collagen in washed rabbit platelet
Oryctolagus cuniculus [7] = species on record: Oryctolagus cuniculus; assay: Inhibitory activity against platelet aggregation induced by platelet activating factor(PAF) in washed rabbit platelet

| Compound | Aggregation (Oryctolagus cuniculus [1]) [%] | IC50 (Oryctolagus cuniculus [2]; read-out: IC50) [µM] | Aggregation (Oryctolagus cuniculus [3]) [%] | Aggregation (Oryctolagus cuniculus [4]) [%] | Aggregation (Oryctolagus cuniculus [5]) [%] | IC50 (Oryctolagus cuniculus [6]; read-out: IC50) [µM] | IC50 (Oryctolagus cuniculus [2]) [µM] | IC50 (Oryctolagus cuniculus [7]) [µM] | IC50 (Oryctolagus cuniculus [6]) [µM] | IC50 (Oryctolagus cuniculus [7]; read-out: IC50) [µM] |
| --- | --- | --- | --- | --- | --- | --- | --- | --- | --- | --- |
| COc1cc2c3c(c1O)-c1ccccc1CC3N(C)CC2 (configuration not stated) | 86.3 | 171 | 0 | 51.7 | 0 | – | – | – | – | – |
| COc1c(O)ccc2c1-c1c(OC)c(O)cc3c1[C@H](C2)[N+](C)(C)CC3.[I-] | 90.7 | – | 89.8 | 85.5 | 83.7 | – | – | – | – | – |
| CN1CCc2cc3c(c4c2[C@H]1Cc1ccccc1-4)OCO3.Cl [REMERINE HYDROCHLORIDE] | 67.2 | 195 | 0 | 27.8 | 0 | 88.2 | – | – | – | – |
| COc1ccc2c(c1OC)-c1c(OC)c(OC)cc3c1[C@H](C2)[N+](C)(C)CC3.[I-] [ISOCORYDINE METHIODIDE] | 90.2 | – | 87.9 | 85.6 | 71 | – | – | – | – | – |
| CC(=O)Oc1ccccc1C(=O)O [ASPIRIN] | 77.9 | – | 87.4 | 90.4 | 0 | – | 164 | > 1000 | > 1000 | – |
| COc1cc2c(cc1OC)-c1c3c(cc4c1[C@H](C2)N(OC)CC4)OCO3 | 86.8 | – | 87.3 | 92.2 | 80.9 | – | – | – | – | – |
| COc1cc2c(cc1OC)C(O)C1c3c(cc(OC)c(OC)c3-2)CCN1C (configuration not stated) | 78.3 | – | 12.7 | 0 | 21.8 | – | – | – | – | 52.6 |
| COc1ccc2c(c1OC)-c1c(OC)c(O)cc3c1[C@H](C2)N(C)CC3 | 89.4 | – | 83.5 | 78.6 | 86.5 | – | – | – | – | – |
| COc1cc2c3c(c1OC)-c1ccccc1C[C@@H]3NCC2 | 77.1 | 211 | 0 | 30.6 | 0 | – | – | – | – | – |
| COc1c(O)ccc2c1-c1c(OC)c(O)cc3c1[C@H](C2)NCC3.Cl | 10.5 | 168 | 0 | 4 | 0 | – | – | – | – | – |
| COc1cc2c(cc1OC)C(O)C1c3c(c(OC)c(OC)c(OC)c3-2)CCN1C (configuration not stated) | 34.5 | 70.4 | 0 | 0 | 0 | – | – | – | – | 11.8 |
| Br.COc1c(O)ccc2c1-c1c3c(cc4c1[C@H](C2)NCC4)OCO3 | 91.8 | – | 0 | 91.6 | 60 | – | – | – | – | – |
| COc1ccc2c(c1OC)-c1c3c(cc4c1[C@H](C2)[N+](C)(C)CC4)OCO3.[I-] | 88.6 | – | 77.6 | 83.9 | 89 | – | – | – | – | – |
| COc1cc2c(cc1O)C[C@H]1c3c(cc(OC)c(OC)c3-2)CC[N+]1(C)C.[I-] | 87.6 | – | 81.3 | 82.7 | 88.1 | – | – | – | – | – |
| CC1=NN(c2ccc([N+](=O)[O-])cc2)C(=O)C1[N+](=O)[O-].COc1cc2c(cc1O)C[C@@H]1NCCc3cc(O)c(OC)c-2c31 | 92.1 | 149 | 4.6 | 79.3 | 0 | – | – | – | – | – |
